Reference: patent publication US20180087079A1, “METHODS OF USING CELL-CYCLE INHIBITORS TO MODULATE ONE OR MORE PROPERTIES OF A CELL CULTURE” (AMGEN INC., priority 2013, published 2018)

System: transfected CHO cells expressing recombinant human monoclonal antibody (cell line 1)
Test: 24-deep well culture, cell line 1: VCD, viability, titer, qP
Format: cell-based, Chinese hamster
Settings: for Titer / VCD / Viability / qP: Cell Line 1
Method: Transfected CHO cells expressing a recombinant human monoclonal antibody (mAb) are cultured in 24-deep well plates with seeding density at 1×10^7/mL for five days. At certain time periods, samples of the cultures are taken and evaluated for viable cell density (VCD; expressed in 10^6 cells/mL); percent viability (as determined by trypan blue exclusion); titer of recombinant protein (expressed in grams of protein per liter of culture, or g/L, as determined by Protein A affinity HPLC); qP, or specific productivity (expressed in picograms of recombinant protein per cell per day, or pg/c/d), the presence or absence of high molecular weight substances (usually an indicator of protein aggregation; expressed as % of the total protein); and the relative percentage of Mannose 5, a major intermediate glyco-form that attaches to N297 of the mAb. N-linked glycosylation has an impact on the tertiary structure of the antibody and may affect Fc mediated antibody effector functions. The majority of the human Fc glycans are complex biantennary structures with galactose as the prevalent terminal sugar. Immature glyco-forms, such as high-mannose glycol-forms (Man5-9), are of concern due to potential higher plasma clearance rate (as compared to the clearance rate of complex glycan linked mAbs).
Compounds are further evaluated essentially as described in Example 2 herein. Briefly, transfected CHO cells expressing recombinant human monoclonal antibody (mAb; two different cell lines expressing two different mAb, referred to as cell line 1 and cell line 2) are cultured in 24-deep well plates in the presence or absence of the compounds. At specified time points, samples of the cultures are taken and evaluated for viable cell density (VCD; expressed in 10^6 cells/mL); percent viability (as determined by any method known in the art); titer of recombinant protein (expressed in grams of protein per liter of culture, or g/L, as determined by Protein A affinity HPLC); qP, or specific productivity (expressed in picograms of recombinant protein per cell per day, or pg/c/d). Additional parameters measure include the presence or absence of high molecular weight substances (usually an indicator of protein aggregation; expressed as % of the total protein); and the relative percentage of Mannose 5. For comparison purposes, Compounds A and B, which had been previously tested, were tested again.

OC1CCN(c2ccc(Nc3ncc4c5ccncc5n(C5CCCC5)c4n3)nn2)C1 (stereo not drawn) [Compound G, 1-(6-((9-cyclopentyl-9H-pyrido[4′,3′:4,5]pyrrolo[2,3-d]pyrimidin-2-yl)amino)pyridazin-3-yl)pyrrolidin-3-ol]
Titer (5 microM, D 1): 0.48 g/L | VCD (5 microM, D 1): 11.74 e6/mL | Viability (5 microM, D 1): 95.55% | qP (5 microM, D 1): 40.59 pg/c/d | Titer (5 microM, D 2): 0.66 g/L | VCD (5 microM, D 2): 10.58 e6/mL | Viability (5 microM, D 2): 88.10% | qP (5 microM, D 2): 62.69 pg/c/d | Titer (5 microM, D 3): 0.96 g/L | VCD (5 microM, D 3): 11.02 e6/mL | Viability (5 microM, D 3): 83.82% | qP (5 microM, D 3): 86.81 pg/c/d | Titer (5 microM, D 4): 0.98 g/L | VCD (5 microM, D 4): 13.45 e6/mL | Viability (5 microM, D 4): 82.62% | qP (5 microM, D 4): 72.60 pg/c/d | Titer (10 microM, D 1): 0.47 g/L | VCD (10 microM, D 1): 11.65 e6/mL | Viability (10 microM, D 1): 95.31% | qP (10 microM, D 1): 40.64 pg/c/d | Titer (10 microM, D 2): 0.80 g/L | VCD (10 microM, D 2): 9.95 e6/mL | Viability (10 microM, D 2): 85.90% | qP (10 microM, D 2): 80.10 pg/c/d | Titer (10 microM, D 3): 0.94 g/L | VCD (10 microM, D 3): 10.48 e6/mL | Viability (10 microM, D 3): 81.90% | qP (10 microM, D 3): 89.39 pg/c/d | Titer (10 microM, D 4): 1.08 g/L | VCD (10 microM, D 4): 13.58 e6/mL | Viability (10 microM, D 4): 79.61% | qP (10 microM, D 4): 79.79 pg/c/d | effect on viability (summary of Table 2): minimal effects on viability | growth arrest (summary of Table 2): reasonably sustained growth arrest

CN(C)C1CCN(c2ccc(Nc3ncc4c(n3)C3(C=CC(C)(C)CC3)c3cnccc3-4)nn2)CC1 (stereo not drawn) [Compound H, N-(6-(4-(dimethylamino)piperidin-1-yl)pyridazin-3-yl)-4,4-dimethylspiro[cyclohex[2]ene-1,9′-pyrido[4′,3′:3,4]cyclopenta[1,2-d]pyrimidin]-2′-amine]
Titer (10 microM, D 1): 0.47 g/L | VCD (10 microM, D 1): 11.48 e6/mL | Viability (10 microM, D 1): 95.80% | qP (10 microM, D 1): 41.24 pg/c/d | Titer (10 microM, D 2): 0.69 g/L | VCD (10 microM, D 2): 12.58 e6/mL | Viability (10 microM, D 2): 89.83% | qP (10 microM, D 2): 55.12 pg/c/d | Titer (10 microM, D 3): 0.94 g/L | VCD (10 microM, D 3): 13.36 e6/mL | Viability (10 microM, D 3): 87.77% | qP (10 microM, D 3): 70.60 pg/c/d | Titer (10 microM, D 4): 0.92 g/L | VCD (10 microM, D 4): 16.49 e6/mL | Viability (10 microM, D 4): 86.93% | qP (10 microM, D 4): 56.01 pg/c/d | Titer (20 microM, D 1): 0.47 g/L | VCD (20 microM, D 1): 10.69 e6/mL | Viability (20 microM, D 1): 95.60% | qP (20 microM, D 1): 44.27 pg/c/d | Titer (20 microM, D 2): 0.68 g/L | VCD (20 microM, D 2): 11.08 e6/mL | Viability (20 microM, D 2): 87.70% | qP (20 microM, D 2): 61.66 pg/c/d | Titer (20 microM, D 3): 0.92 g/L | VCD (20 microM, D 3): 10.91 e6/mL | Viability (20 microM, D 3): 82.95% | qP (20 microM, D 3): 83.98 pg/c/d | Titer (20 microM, D 4): 0.97 g/L | VCD (20 microM, D 4): 12.99 e6/mL | Viability (20 microM, D 4): 81.36% | qP (20 microM, D 4): 74.65 pg/c/d

Fc1ccc(-n2c3cnccc3c3cnc(Nc4ccc(N5CCNCC5)cn4)nc32)c(F)c1 [Compound I, 9-(2,4-difluorophenyl)-N-(5-(piperazin-1-yl)pyridin-2-yl)-9H-pyrido[4′,3′:4,5]pyrrolo[2,3-d]pyrimidin-2-amine]
Titer (0.625 microM, D 1): 0.46 g/L | VCD (0.625 microM, D 1): 11.17 e6/mL | Viability (0.625 microM, D 1): 95.26% | qP (0.625 microM, D 1): 41.50 pg/c/d | Titer (0.625 microM, D 2): 0.66 g/L | VCD (0.625 microM, D 2): 11.98 e6/mL | Viability (0.625 microM, D 2): 89.90% | qP (0.625 microM, D 2): 55.10 pg/c/d | Titer (0.625 microM, D 3): 0.89 g/L | VCD (0.625 microM, D 3): 12.81 e6/mL | Viability (0.625 microM, D 3): 85.53% | qP (0.625 microM, D 3): 69.73 pg/c/d | Titer (0.625 microM, D 4): 1.07 g/L | VCD (0.625 microM, D 4): 16.91 e6/mL | Viability (0.625 microM, D 4): 85.47% | qP (0.625 microM, D 4): 63.09 pg/c/d | Titer (1.25 microM, D 1): 0.46 g/L | VCD (1.25 microM, D 1): 10.89 e6/mL | Viability (1.25 microM, D 1): 94.78% | qP (1.25 microM, D 1): 42.55 pg/c/d | Titer (1.25 microM, D 2): 0.66 g/L | VCD (1.25 microM, D 2): 11.16 e6/mL | Viability (1.25 microM, D 2): 88.73% | qP (1.25 microM, D 2): 58.82 pg/c/d | Titer (1.25 microM, D 3): 0.89 g/L | VCD (1.25 microM, D 3): 12.25 e6/mL | Viability (1.25 microM, D 3): 85.80% | qP (1.25 microM, D 3): 72.68 pg/c/d | Titer (1.25 microM, D 4): 1.06 g/L | VCD (1.25 microM, D 4): 15.33 e6/mL | Viability (1.25 microM, D 4): 84.19% | qP (1.25 microM, D 4): 69.35 pg/c/d

CC1(C)CN(c2ccc(Nc3ncc4c5ccncc5n(-c5ccc(F)cc5F)c4n3)nc2)CCN1 [Compound J, 9-(2,4-difluorophenyl)-N-(5-(3,3-dimethylpiperazin-1-yl)pyridin-2-yl)-9H-pyrido[4′,3′:4,5]pyrrolo[2,3-d]pyrimidin-2-amine]
Titer (0.625 microM, D 1): 0.45 g/L | VCD (0.625 microM, D 1): 11.40 e6/mL | Viability (0.625 microM, D 1): 94.94% | qP (0.625 microM, D 1): 39.77 pg/c/d | Titer (0.625 microM, D 2): 0.68 g/L | VCD (0.625 microM, D 2): 14.02 e6/mL | Viability (0.625 microM, D 2): 91.87% | qP (0.625 microM, D 2): 48.50 pg/c/d | Titer (0.625 microM, D 3): 0.88 g/L | VCD (0.625 microM, D 3): 16.48 e6/mL | Viability (0.625 microM, D 3): 90.31% | qP (0.625 microM, D 3): 53.61 pg/c/d | Titer (0.625 microM, D 4): 0.99 g/L | VCD (0.625 microM, D 4): 19.37 e6/mL | Viability (0.625 microM, D 4): 89.98% | qP (0.625 microM, D 4): 51.10 pg/c/d | Titer (1.25 microM, D 1): 0.44 g/L | VCD (1.25 microM, D 1): 11.54 e6/mL | Viability (1.25 microM, D 1): 94.24% | qP (1.25 microM, D 1): 38.41 pg/c/d | Titer (1.25 microM, D 2): 0.64 g/L | VCD (1.25 microM, D 2): 11.25 e6/mL | Viability (1.25 microM, D 2): 87.53% | qP (1.25 microM, D 2): 57.19 pg/c/d | Titer (1.25 microM, D 3): 0.86 g/L | VCD (1.25 microM, D 3): 14.06 e6/mL | Viability (1.25 microM, D 3): 84.29% | qP (1.25 microM, D 3): 61.40 pg/c/d | Titer (1.25 microM, D 4): 1.08 g/L | VCD (1.25 microM, D 4): 17.54 e6/mL | Viability (1.25 microM, D 4): 84.81% | qP (1.25 microM, D 4): 61.77 pg/c/d

CC1(C)C=CC2(CC1)c1cnccc1-c1cnc(Nc3ccc(N4CCNCC4)nn3)nc12 (stereo not drawn) [Compound K, 4,4-dimethyl-N-(6-(piperazin-1-yl)pyridazin-3-yl)spiro[cyclohex[2]ene-1,9′-pyrido[4′,3′:3,4]cyclopenta[1,2-d]pyrimidin]-2′-amine]
Titer (1.25 microM, D 1): 0.48 g/L | VCD (1.25 microM, D 1): 11.87 e6/mL | Viability (1.25 microM, D 1): 95.72% | qP (1.25 microM, D 1): 40.15 pg/c/d | Titer (1.25 microM, D 2): 0.72 g/L | VCD (1.25 microM, D 2): 13.04 e6/mL | Viability (1.25 microM, D 2): 92.13% | qP (1.25 microM, D 2): 54.94 pg/c/d | Titer (1.25 microM, D 3): 1.01 g/L | VCD (1.25 microM, D 3): 16.39 e6/mL | Viability (1.25 microM, D 3): 90.36% | qP (1.25 microM, D 3): 61.61 pg/c/d | Titer (1.25 microM, D 4): 1.07 g/L | VCD (1.25 microM, D 4): 22.55 e6/mL | Viability (1.25 microM, D 4): 91.21% | qP (1.25 microM, D 4): 47.60 pg/c/d | Titer (2.5 microM, D 1): 0.48 g/L | VCD (2.5 microM, D 1): 11.77 e6/mL | Viability (2.5 microM, D 1): 96.38% | qP (2.5 microM, D 1): 40.78 pg/c/d | Titer (2.5 microM, D 2): 0.72 g/L | VCD (2.5 microM, D 2): 12.07 e6/mL | Viability (2.5 microM, D 2): 90.97% | qP (2.5 microM, D 2): 59.38 pg/c/d | Titer (2.5 microM, D 3): 1.05 g/L | VCD (2.5 microM, D 3): 15.31 e6/mL | Viability (2.5 microM, D 3): 89.25% | qP (2.5 microM, D 3): 68.37 pg/c/d | Titer (2.5 microM, D 4): 1.22 g/L | VCD (2.5 microM, D 4): 21.06 e6/mL | Viability (2.5 microM, D 4): 89.80% | qP (2.5 microM, D 4): 58.10 pg/c/d
